Laboratory results from US7622490B2, “Broadspecturm 2-amino-benzoxazole sulfonamide HIV protease inhibitors” (Tibotec Pharmaceuticals, Ltd., priority 2001, dated 2009).

What was measured:
Type in all cases: cell-based
HIV-1 strain LAI = experiment: Cellular anti-HIV assay (MTT) in MT4 cells, wild type strain; settings: five days
Description: The compounds of the present invention were examined for anti-viral activity in a cellular assay. […] The cellular assay was performed according to the following procedure.
(§1) HIV- or mock-infected MT4 cells were incubated for five days in the presence of various concentrations of the inhibitor. At the end of the incubation period, all HIV-infected cells have been killed by the replicating virus in the control cultures in the absence of any inhibitor. Cell viability is measured by measuring the concentration of MTT, a yellow, water soluble tetrazolium dye that is converted to a purple, water insoluble formazan in the mitochondria of living cells only. Upon solubilization of the resulting formazan crystals with isopropanol, the absorbance of the solution is monitored at 540 nm. The values correlate directly to the number of living cells remaining in the culture at the completion of the five day incubation. The inhibitory activity of the compound was monitored on the virus-infected cells and was expressed as EC50 and EC90. […] Whetever results are reported as e.g. pEC50 or pCC50 values, the result is expressed as the negative logarithm of the result expressed as EC50 or CC50 respectively.
(§2) As a measure of the broad spectrum activity of the present compounds, the fold resistance (FR), defined as FR=EC50(mutant strain)/EC50(HIV-I strain LAI), was determined.

HIV strain C = experiment: Cellular anti-HIV assay, clinically isolated mutant strain C; settings: FR=EC50(mutant strain)/EC50(HIV-I strain LAI); MT4 cells
Description: as §1, with “EC90. These values represent the amount of the compound required to protect 50% and 90%, respectively, of the cells from the cytopathogenic effect of the virus.” for “EC90.”, “respectively. […]” for “respectively.”
as §2

HIV strain B = experiment: Cellular anti-HIV assay, clinically isolated mutant strain B; settings: FR=EC50(mutant strain)/EC50(HIV-I strain LAI); MT4 cells
Description: as §1, with “EC90. These values represent the amount of the compound required to protect 50% and 90%, respectively, of the cells from the cytopathogenic effect of the virus.” for “EC90.”, “respectively. […]” for “respectively.”
as §2

HIV strain E = experiment: Cellular anti-HIV assay, clinically isolated mutant strain E; settings: FR=EC50(mutant strain)/EC50(HIV-I strain LAI); MT4 cells
Description: as §1, with “EC90. These values represent the amount of the compound required to protect 50% and 90%, respectively, of the cells from the cytopathogenic effect of the virus.” for “EC90.”, “respectively. […]” for “respectively.”
as §2

HIV strain F = experiment: Cellular anti-HIV assay, clinically isolated mutant strain F; settings: FR=EC50(mutant strain)/EC50(HIV-I strain LAI); MT4 cells
Description: as §1, with “EC90. These values represent the amount of the compound required to protect 50% and 90%, respectively, of the cells from the cytopathogenic effect of the virus.” for “EC90.”, “respectively. […]” for “respectively.”
as §2

HIV strain D = experiment: Cellular anti-HIV assay, clinically isolated mutant strain D; settings: FR=EC50(mutant strain)/EC50(HIV-I strain LAI); MT4 cells
Description: as §1, with “EC90. These values represent the amount of the compound required to protect 50% and 90%, respectively, of the cells from the cytopathogenic effect of the virus.” for “EC90.”, “respectively. […]” for “respectively.”
as §2

HIV strain A = experiment: Cellular anti-HIV assay, clinically isolated mutant strain A; settings: FR=EC50(mutant strain)/EC50(HIV-I strain LAI); MT4 cells
Description: as §1, with “EC90. These values represent the amount of the compound required to protect 50% and 90%, respectively, of the cells from the cytopathogenic effect of the virus.” for “EC90.”, “respectively. […]” for “respectively.”
as §2

mock-infected MT4 cells = experiment: Toxicity on mock-infected MT4 cells (MTT); settings: pCC50 value as determined with mock transfected cells; five days
Description: as §1, with “EC90. These values represent the amount of the compound required to protect 50% and 90%, respectively, of the cells from the cytopathogenic effect of the virus.” for “EC90.”
as §2

Structure (SMILES)	WT (pEC50) (HIV-1 strain LAI)	FR towards mutant C (HIV strain C)	FR towards mutant B (HIV strain B)	FR towards mutant E (HIV strain E)	FR towards mutant F (HIV strain F)	FR towards mutant D (HIV strain D)	FR value towards mutant A (HIV strain A)	Tox (pCC50) (mock-infected MT4 cells)
CNc1nc2ccc(S(=O)(=O)N(CC(C)C)CC(O)C(Cc3ccccc3)NC(=O)OC3COC4OCCNC34)cc2o1 (mixture of isomers) [Compound 44]	7.36	0.93	1.3	0.56	4.9	0.56	1.6	4
CNc1nc2ccc(S(=O)(=O)N(CC(C)C)CC(O)C(Cc3ccccc3)NC(=O)OC3COC4OCCNC34)cc2o1 (mixture of isomers) [Compound 43]	7.32	0.8	1.6	0.59	14	0.62	3.3	4
